The values that follow come from patent US11872225B2, “Pyruvate kinase modulators and use thereof” (Agios Pharmaceuticals, Inc., priority 2017, dated 2024).

Chain of wild type PKM2 (P14618 whole entry): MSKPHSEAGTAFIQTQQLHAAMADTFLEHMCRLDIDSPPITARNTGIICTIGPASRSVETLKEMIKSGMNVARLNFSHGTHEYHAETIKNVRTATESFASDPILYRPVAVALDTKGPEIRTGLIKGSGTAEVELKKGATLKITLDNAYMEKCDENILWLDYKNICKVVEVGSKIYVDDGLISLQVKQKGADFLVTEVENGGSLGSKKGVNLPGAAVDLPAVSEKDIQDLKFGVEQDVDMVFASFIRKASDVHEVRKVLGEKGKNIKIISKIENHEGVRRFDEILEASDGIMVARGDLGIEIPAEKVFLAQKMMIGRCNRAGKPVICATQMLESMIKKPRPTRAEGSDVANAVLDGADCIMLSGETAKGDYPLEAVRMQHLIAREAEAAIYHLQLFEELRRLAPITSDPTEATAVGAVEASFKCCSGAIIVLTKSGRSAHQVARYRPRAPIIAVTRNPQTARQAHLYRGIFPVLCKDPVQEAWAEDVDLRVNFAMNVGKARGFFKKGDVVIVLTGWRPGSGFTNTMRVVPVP
Chain of PKM2 (P52480 whole entry): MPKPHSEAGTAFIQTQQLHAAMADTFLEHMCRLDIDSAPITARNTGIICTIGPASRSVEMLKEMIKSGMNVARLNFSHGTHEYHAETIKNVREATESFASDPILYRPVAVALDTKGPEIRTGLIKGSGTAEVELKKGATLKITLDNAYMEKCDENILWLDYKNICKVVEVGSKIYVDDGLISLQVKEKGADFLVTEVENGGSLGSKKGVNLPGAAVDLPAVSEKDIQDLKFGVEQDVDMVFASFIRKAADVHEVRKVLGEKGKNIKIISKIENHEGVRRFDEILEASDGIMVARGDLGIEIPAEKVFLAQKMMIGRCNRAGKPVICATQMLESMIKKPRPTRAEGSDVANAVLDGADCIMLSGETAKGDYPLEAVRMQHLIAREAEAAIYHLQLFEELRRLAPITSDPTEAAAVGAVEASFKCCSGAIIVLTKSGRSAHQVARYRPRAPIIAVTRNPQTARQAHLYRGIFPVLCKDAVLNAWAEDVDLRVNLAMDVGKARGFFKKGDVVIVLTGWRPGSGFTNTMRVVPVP

In one assay the target is wild type PKM2 (Homo sapiens, UniProt P14618). In words: PKM2 Assay (LDH/NADH-coupled, absorbance at 340 nm). Type of assay: biochemical. Conditions: wild type PKM2 activation; 60 min preincubation at 25° C.; ADP 0.4 mM, PEP 0.11 mM; read-out: PKM2 WT AC50. How it is done:
A compound described herein may be tested for its ability to activate PKM2. For simplicity, the activation activity of these compounds is represented as an AC50 in Table 2. In Tables 2, a compound described herein may have an AC50 of wild type PKM2.
PKM2 enzyme stock solution was diluted to prepare a 1.11× Reaction Mix (without ADP). 1 μL of test compound was first added to the wells followed by 40 μL of 1.11× Reaction Mix (without ADP) and incubated at room temperature (25° C.) for 60 min. The reaction was initiated with 10 μL ADP (0.4 mM final concentration), bringing the final Reaction Mix to 1×, and the reaction progress was measured as changes in absorbance at 340 nm wavelength at room temperature.
Test compound preparation: Test compounds were prepared at 50× final concentration in DMSO. 1 to 3 dilutions were made for 11 points (for example 50 μL of 5000 μM compound was added to 100 μL 100% DMSO to yield a 1667 μM, 50 μL of this added to 100 μL DMSO to yield 556 μM, and so forth). The compounds were added to the assay as a 1 to 50 dilution (1 μL in 50 μL) to yield a top concentration of 100 μM, decreasing 3-fold for 11 points.
Reaction Mix: PKM2 (5 ng/well, 0.1 μg/ml), ADP (0.4 mM), PEP (0.11 mM), NADH (180 μM), LDH (0.005 U/μL, Sigma #L3888), 1 mM DTT, 0.03% BSA in 1× Reaction Buffer
Reaction Buffer: 100 mM KCl, 50 mM Tris pH 7.5, 5 mM MgCl2.
As to `Cc1nc2c(s1)c1cnn(Cc3cccc(F)n3)c(=O)c1n2C` [Compound 9], the AC50 – broadly, the midpoint of the concentration-response curve, whichever way the signal moves – was in the range of 0.301 to 0.8 µM.

Regarding `CC(=O)c1cccc(CC(c2cc[nH]n2)c2nc3c(s2)c2cnn(Cc4cccc(C(C)=O)c4)c(=O)c2n3C)c1` (stereo not drawn) [Compound 71], the AC50 is more than 0.8 µM.

As to `CC(=O)Nc1ccc(F)c(Cn2ncc3c4sc(Cc5cnn(C)c5)nc4n(C)c3c2=O)n1` [Compound 127], the AC50 fell in the range of 0.301 to 0.8 µM.

Consider `Cn1ccc(Cn2ncc3c4sc(CCc5cccnc5)nc4n(C)c3c2=O)n1` [Compound 141], for which the half-maximal activity concentration (AC50) is more than 0.8 µM.

As to `CCOC(=O)Cn1ncc2c3sc(C)nc3n(C)c2c1=O` [Compound 24], the AC50 is more than 0.8 µM.

In the case of `Cn1c2nc([S+](C)[O-])sc2c2cnn(Cc3ccc(C#N)cc3)c(=O)c21` (stereo not drawn) [Compound 27], the AC50 was 0.301 to 0.8 µM.

Turning to `Cn1c2nc(Cc3ccccn3)sc2c2cnn(Cc3nccs3)c(=O)c21` [Compound 91], the AC50 was less than 0.3 µM.

For the compound `Cn1c2nc(Cc3cccc(N)n3)sc2c2cnn(Cc3cc[nH]n3)c(=O)c21` [Compound 101], the concentration at half-maximal activity (AC50) is less than 0.3 µM.

`Cn1c2nc(-n3cnc(CS(=O)(=O)c4ccccc4)c3)sc2c2cnn(Cc3cccc4[nH]ncc34)c(=O)c21` [Compound 67]: the AC50 is more than 0.8 µM.

`Cn1c2nc(SCc3ccccc3)sc2c2cnn(Cc3cccc4[nH]ncc34)c(=O)c21` [Compound 45]: the AC50 is 0.301 to 0.8 µM.

The next assay addresses PKM2 (Mus musculus, UniProt P52480).
Experiment: not given
Conditions: in vivo, LPS; cited from earlier work.
In the case of `Cn1c2cc([S+](C)[O-])sc2c2cnn(Cc3cccc(N)c3)c(=O)c21` (stereo not drawn) [TEPP-46], the IL-1β production entry is “inhibited LPS and IL-1β production”; the “production of IL-10” value is on record as “boosting production of IL-10”.
